For data set [1] the following is noted: unmodified peptide/protein, humans/patients; cited from earlier work.
For data set [2] the following is noted: cited from earlier work.
Data set [3] has as its system folate receptor-positive KB cell line. Briefly: CellTiter-Glo anti-proliferation assay on KB cells. Type of data set: cell-based. Particulars: absence of folic acid competitor, read-out: IC50 (cell killing). The protocol: The ability to selectively target and kill cells bearing folate receptors was evaluated. Test articles of free MMAE, a non-targeting 3×MMAE-XTEN conjugate (XTEN linked to toxin) and the folate receptor-targeted 3×FA(γ),3×MMAE-XTEN conjugate were evaluated in a CellTiter-Glo anti-proliferation assay using the folate receptor-positive KB cell line. As culture media contain high folic acid content, KB cells were grown in folic acid-free media containing 10% heat-inactivated fetal calf serum at 37° C., 5% C02 for at least 7 days prior to the commencement of the cell viability experiment, This medium was also utilized for the execution of the experiment. In brief, KB cells were plated at 10,000 cells per well onto a 96-well microtiter assay plate. KB cells were allowed to adhere to the plate by an overnight incubation at 37° C., 5% CO2. The spent media was then removed and wells designated to contain folic acid competitor received assay medium containing folic acid, while wells not designated to have folic acid competitor received assay medium only. The plate was incubated for 30 min at 37° C., 5% CO2 before the assay media was aspirated and plate washed with assay media. […] After the appropriate incubation period, CellTiter-Glo reagent was added and the plate was read on a luminometer. The IC50 of each test article was determined using a 4 parameter logistic curve fit using GraphPad Prism.
Background: ATP-based viability assays read luminescence as a measure of living cells.

For data set [4] the following is noted: rats, intravenous administration; cited from earlier work.

These results are taken from patent US10172953B2, “XTEN conjugate compositions and methods of making same” (Amunix Operating Inc., priority 2012, dated 2019).

Square brackets hold non-standard residues; d marks the D form. Peptide text beside a SMILES is read from it. * marks the point of attachment. Dolaproine = CO[C@@H]([C@@H]1CCCN1)[C@@H](C)C(=O)O; Dil = CC[C@H](C)[C@H](NC)[C@@H](CC(=O)O)OC; X1 = C[C@@H](N*)[C@@H](O)c1ccccc1; NMeV = CN[C@H](C(=O)O)C(C)C

As to `CC(C)[C@H]1C(=O)N[C@@H](CCCN=C(N)N)C(=O)NCC(=O)N[C@@H](CC(=O)O)C(=O)N[C@H](Cc2ccccc2)C(=O)N1C` [cilengitide, 2-[(2S,5R,8S,11S)-5-benzyl-11-{3-[(diaminomethylidene)amino]propyl}-7-methyl-3,6,9,12,15-pentaoxo-8-(propan-2-yl)-1,4,7,10,13-pentaazacyclopentadecan-2-yl]acetic acid, reference compound], the half-life in data set [1] was 3 to 5 h. Also, in data set [2], the “maximum drug concentration (poor solubility)” value is on record as no more than 15 mg/mL.
With `CC[C@H](C)[C@@H]([C@@H](CC(=O)N1CCC[C@H]1[C@H](OC)[C@@H](C)C(=O)N[C@H](C)[C@@H](O)c1ccccc1)OC)N(C)C(=O)[C@@H](NC(=O)[C@@H](NC)C(C)C)C(C)C` [MMAE, monomethyl auristatin E] (H-[NMeV]V[Dil][Dolaproine]-X1), the IC50 in data set [3] worked out at 0.8 nM.

B1: follistatin: protein encoded by the FST gene (protein, UniProt P19883 30-344, looked up)
Follistatin: GNCWLRQAKNGRCQVLYKTELSKEECCSTGRLSTSWTEEDVNDNTLFKWMIFNGGAPNCIPCKETCENVDCGPGKKCRMNKKNKPRCVCAPDCSNITWKGPVCGLDGKTYRNECALLKARCKEQPELEVQYQGRCKKTCRDVFCPGSSTCVVDQTNNAYCVTCNRICPEPASSEQYLCGNDGVTYSSACHLRKATCLLGRSIGLAYEGKCIKAKSCEDIQCTGGKKCLWDFKVGRGRCSLCDELCPDSKSDEPVCASDNATYASECAMKEAACSSGVLLEVKHSGSCNSISEDTEEEEEDEDQDYSFPISSILEW
With B1, in data set [4], the terminal half-life result is “over 2 hours”.

For orientation: half-life means how long it takes for the measured level to halve. In general, IC50 refers to the concentration needed to halve the response being measured.
